Experimental data reported in PMC8193046, “Scaffold fragmentation and substructure hopping reveal potential, robustness, and limits of computer-aided pattern analysis (C@PA)” (Computational and Structural Biotechnology Journal, 2021).

Key:
Format in all cases: cell-based
ABCB1 = biological target: T1, ABCB1 (Homo sapiens, UniProt P08183); experiment: calcein AM fluorescence accumulation assay, ABCB1-overexpressing A2780/ADR cells; settings: for activity against ABCB1 in preliminary screening: screened at 10 µM, active = at least 20% (+SEM) of effect of 10 µM compound 2
T1 construct: ABCB1-overexpressing A2780/ADR (30,000 cells/well); host or cells: A2780/ADR
T1 sequence (P08183 whole entry): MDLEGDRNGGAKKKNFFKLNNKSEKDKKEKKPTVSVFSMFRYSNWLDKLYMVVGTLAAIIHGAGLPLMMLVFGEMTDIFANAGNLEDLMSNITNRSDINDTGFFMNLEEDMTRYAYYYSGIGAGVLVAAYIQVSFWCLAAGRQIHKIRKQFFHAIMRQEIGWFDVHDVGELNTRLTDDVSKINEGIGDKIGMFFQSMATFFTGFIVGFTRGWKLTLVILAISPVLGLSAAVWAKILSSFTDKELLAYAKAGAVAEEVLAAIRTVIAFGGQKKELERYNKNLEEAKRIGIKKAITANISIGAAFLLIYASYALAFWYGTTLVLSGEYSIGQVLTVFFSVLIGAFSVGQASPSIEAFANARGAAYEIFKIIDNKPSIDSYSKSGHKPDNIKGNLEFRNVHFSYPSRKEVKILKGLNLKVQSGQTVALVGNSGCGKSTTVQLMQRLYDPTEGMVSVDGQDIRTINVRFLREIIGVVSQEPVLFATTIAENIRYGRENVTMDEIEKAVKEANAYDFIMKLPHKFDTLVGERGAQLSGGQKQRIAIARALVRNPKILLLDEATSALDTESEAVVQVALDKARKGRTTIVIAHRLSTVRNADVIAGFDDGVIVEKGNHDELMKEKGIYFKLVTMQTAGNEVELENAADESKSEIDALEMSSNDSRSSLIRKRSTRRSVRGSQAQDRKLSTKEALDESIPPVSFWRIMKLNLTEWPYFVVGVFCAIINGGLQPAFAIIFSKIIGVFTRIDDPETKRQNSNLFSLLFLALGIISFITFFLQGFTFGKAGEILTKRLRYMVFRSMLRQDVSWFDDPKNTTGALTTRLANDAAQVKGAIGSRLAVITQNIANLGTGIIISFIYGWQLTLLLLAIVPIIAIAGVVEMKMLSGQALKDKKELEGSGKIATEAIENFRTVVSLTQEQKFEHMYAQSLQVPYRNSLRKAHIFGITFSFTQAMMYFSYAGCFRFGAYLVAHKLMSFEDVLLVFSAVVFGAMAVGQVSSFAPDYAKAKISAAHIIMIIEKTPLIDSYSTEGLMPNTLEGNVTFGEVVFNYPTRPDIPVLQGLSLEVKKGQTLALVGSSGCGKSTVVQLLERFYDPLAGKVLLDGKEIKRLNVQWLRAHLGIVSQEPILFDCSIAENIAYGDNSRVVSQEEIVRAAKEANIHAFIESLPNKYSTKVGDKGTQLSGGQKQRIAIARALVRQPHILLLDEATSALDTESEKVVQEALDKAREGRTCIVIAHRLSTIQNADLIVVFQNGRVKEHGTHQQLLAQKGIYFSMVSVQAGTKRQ
Description: (§1) Compounds 16–25 were screened at 10 µM in calcein AM (ABCB1 and ABCC1) as well as pheophorbide A (ABCG2) fluorescence accumulation assays using either ABCB1-overexpressing A2780/ADR, ABCC1-overexpressing H69AR, or ABCG2-overexpressing MDCK II BCRP cells, respectively, as reported earlier, [43], [45], [67], [101]. Calcein AM and pheophorbide A are substrates of ABCB1 and ABCC1 as well as ABCG2, respectively, which passively diffuse into the used cells and become extruded by the corresponding ABC transporter. Inhibition of the respective transporter results in the accumulation of these substrates. Calcein AM is subsequently cleaved by intracellular esterases to the fluorescent calcein, while pheophorbide A is already fluorescent. Intracellular fluorescence was determined via microplate reader (calcein AM; ABCB1 and ABCC1) and flow cytometry (pheophorbide A; ABCG2), respectively. Compounds 2 (Fig. 1) and 26–27 (Fig. 5) were used as reference inhibitors against ABCB1, ABCC1, and ABCG2, respectively, as reported before, [101]. Fig. 7 provides the screening results for ABCB1 (A), ABCC1 (B), and ABCG2 (C).
(§2) The ABCB1-overexpressing A2780/ADR cells were delivered by European Collection of Animal Cell Culture (ECACC, no. 93112520) and cultivated using RPMI-1640 medium (PAN-Biotech GmbH, Aidenbach, Germany) complemented with fetal bovine serum (FCS; 10%; PAN-Biotech GmbH, Aidenbach, Germany), streptomycin (50 µg/µL; PAN-Biotech GmbH, Aidenbach, Germany), penicillin G (50 U/mL; PAN-Biotech GmbH, Aidenbach, Germany), as well as L-glutamine (2 mM; PAN-Biotech GmbH, Aidenbach, Germany). The ABCC1-overexpressing H69AR cells were provided by American Type Culture Collection (ATCC CRL-11351), which were cultured with RPMI-1640 medium to which FCS (20%), streptomycin (50 µg/µL), penicillin G (50 U/mL), as well as L-glutamine (2 mM) were added. Dr. A. Schinkel (The Netherlands Cancer Institute, Amsterdam, The Netherlands) generously provided the ABCG2-overexpressing MDCK II BCRP cells, which were cultivated in Dulbecco's modified eagle medium (DMEM; Sigma Life Science, Steinheim, Germany) complemented with FCS (10%), streptomycin (50 µg/µL), penicillin G (50 U/mL), as well as L-glutamine (2 mM). The cell lines were stored in a mixture of 90% cell culture medium and 10% DMSO under liquid nitrogen, while cultivation was performed at 37 °C under 5% CO2-humidified atmosphere. After a confluence of 90% was reached, the cells were harvested using a 0.05%/0.02% trypsin-EDTA solution (PAN-Biotech GmbH, Aidenbach, Germany). […]
(§3) The inhibitory activity against ABCB1 and ABCC1 was evaluated in a calcein AM assay as reported earlier, [67], [101]. […] The incubation period at 37 °C under 5% CO2-humidified atmosphere lasted 30 min before 20 µL of a 3.125 µM calcein AM was added to each well, subsequently followed by measurement of fluorescence increase at an excitation wavelength of 485 nm and an emission wave length of 520 nm in 60 sec intervals for 1 h in either POLARstar and FLUOstar Optima microplate readers (BMG Labtech, software versions 2.00R2/2.20 and 4.11-0; Offenburg, Germany).

ABCG2 = biological target: T2, ABCG2 (Homo sapiens, UniProt Q9UNQ0); experiment: pheophorbide A fluorescence accumulation assay, ABCG2-overexpressing MDCK II BCRP cells
T2 construct: host or cells: MDCK II BCRP
T2 sequence (Q9UNQ0 1-655): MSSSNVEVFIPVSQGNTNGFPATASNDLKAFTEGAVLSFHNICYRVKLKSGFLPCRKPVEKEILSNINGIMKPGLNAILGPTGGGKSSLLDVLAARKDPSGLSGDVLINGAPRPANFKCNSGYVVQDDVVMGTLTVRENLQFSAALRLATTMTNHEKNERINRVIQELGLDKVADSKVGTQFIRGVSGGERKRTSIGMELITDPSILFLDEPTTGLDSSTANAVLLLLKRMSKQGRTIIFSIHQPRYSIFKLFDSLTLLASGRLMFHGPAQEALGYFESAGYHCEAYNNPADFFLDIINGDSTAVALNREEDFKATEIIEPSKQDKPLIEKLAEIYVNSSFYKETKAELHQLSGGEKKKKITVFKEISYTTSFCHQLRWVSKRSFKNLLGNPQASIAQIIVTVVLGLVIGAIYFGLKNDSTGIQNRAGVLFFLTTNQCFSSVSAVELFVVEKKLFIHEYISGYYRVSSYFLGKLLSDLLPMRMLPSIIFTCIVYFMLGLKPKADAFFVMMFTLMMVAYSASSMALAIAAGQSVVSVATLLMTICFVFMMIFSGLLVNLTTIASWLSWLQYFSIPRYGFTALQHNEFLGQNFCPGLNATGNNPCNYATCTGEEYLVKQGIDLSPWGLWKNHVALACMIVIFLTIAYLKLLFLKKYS
Description: as §1, with “Fig. 7 provides the screening results for ABCB1 (A), ABCC1 (B), and ABCG2 (C).” left out
The inhibitory activity against ABCG2 was evaluated in a pheophorbide A assay as reported earlier, [67]. […] The effect values of compounds 16–25 were measured via flow cytometry [Guava easyCyte^TM HT, (Merck Millipore, Billerica, MA, USA; excitation: 488 nm; emission: 695/50 nm)] and compared to the effect value of 10 µM of compound 27.

ABCC1 = biological target: T3, ABCC1 (Homo sapiens, UniProt P33527); experiment: calcein AM fluorescence accumulation assay, ABCC1-overexpressing H69AR cells; settings: for activity against ABCC1 in preliminary screening: screened at 10 µM, active = at least 20% (+SEM) of effect of 10 µM compound 26
T3 construct: ABCC1-overexpressing H69AR (60,000 cells/well) cells were added; host or cells: H69AR
T3 sequence (P33527 whole entry): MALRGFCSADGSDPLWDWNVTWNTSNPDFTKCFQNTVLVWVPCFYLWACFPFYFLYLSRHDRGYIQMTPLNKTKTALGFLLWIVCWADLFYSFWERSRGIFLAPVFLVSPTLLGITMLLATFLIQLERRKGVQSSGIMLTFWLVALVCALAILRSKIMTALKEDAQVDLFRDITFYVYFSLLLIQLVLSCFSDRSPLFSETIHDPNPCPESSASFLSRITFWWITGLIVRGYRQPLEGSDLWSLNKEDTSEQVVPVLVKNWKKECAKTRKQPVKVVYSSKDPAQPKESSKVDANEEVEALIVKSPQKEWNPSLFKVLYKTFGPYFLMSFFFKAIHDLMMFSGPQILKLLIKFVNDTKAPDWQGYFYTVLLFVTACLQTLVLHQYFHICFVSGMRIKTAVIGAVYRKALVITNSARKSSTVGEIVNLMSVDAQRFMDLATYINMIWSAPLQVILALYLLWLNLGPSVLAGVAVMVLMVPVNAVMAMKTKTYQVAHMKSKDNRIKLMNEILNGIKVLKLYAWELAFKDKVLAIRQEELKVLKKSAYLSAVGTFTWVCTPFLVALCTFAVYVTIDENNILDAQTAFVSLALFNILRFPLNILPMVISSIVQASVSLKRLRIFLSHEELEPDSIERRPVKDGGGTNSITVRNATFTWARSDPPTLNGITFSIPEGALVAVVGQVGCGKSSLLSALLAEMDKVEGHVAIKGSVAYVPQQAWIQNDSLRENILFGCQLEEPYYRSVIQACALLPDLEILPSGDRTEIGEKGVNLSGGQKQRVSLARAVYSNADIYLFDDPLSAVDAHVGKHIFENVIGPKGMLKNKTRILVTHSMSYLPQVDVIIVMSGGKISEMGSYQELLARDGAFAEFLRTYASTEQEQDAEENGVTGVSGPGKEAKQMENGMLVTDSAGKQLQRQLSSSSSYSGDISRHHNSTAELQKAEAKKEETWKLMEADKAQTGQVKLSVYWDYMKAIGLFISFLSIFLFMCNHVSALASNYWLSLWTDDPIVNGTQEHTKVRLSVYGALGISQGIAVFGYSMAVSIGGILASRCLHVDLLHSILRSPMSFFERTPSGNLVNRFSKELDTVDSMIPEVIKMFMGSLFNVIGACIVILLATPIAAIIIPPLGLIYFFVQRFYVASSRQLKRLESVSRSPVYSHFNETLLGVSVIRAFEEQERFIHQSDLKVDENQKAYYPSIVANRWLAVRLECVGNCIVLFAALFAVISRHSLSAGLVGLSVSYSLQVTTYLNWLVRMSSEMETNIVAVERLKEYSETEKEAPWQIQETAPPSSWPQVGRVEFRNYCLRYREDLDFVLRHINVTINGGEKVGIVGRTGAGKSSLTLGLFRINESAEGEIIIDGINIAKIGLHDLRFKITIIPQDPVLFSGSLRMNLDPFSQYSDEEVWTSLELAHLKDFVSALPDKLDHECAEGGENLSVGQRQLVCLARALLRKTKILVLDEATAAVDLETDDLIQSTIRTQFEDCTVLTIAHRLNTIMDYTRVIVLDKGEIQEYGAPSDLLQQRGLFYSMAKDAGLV
Description: as §1
as §2, with “mM).” for “mM). The cell lines were stored in a mixture of 90% cell culture medium and 10% DMSO under liquid nitrogen, while cultivation was performed at 37 °C under 5% CO2-humidified atmosphere. After a confluence of 90% was reached, the cells were harvested using a 0.05%/0.02% trypsin-EDTA solution (PAN-Biotech GmbH, Aidenbach, Germany).”
as §3

| activity against ABCB1 in preliminary screening (ABCB1) | activity against ABCC1 in preliminary screening (ABCC1) | SMILES | also measured |
| --- | --- | --- | --- |
| activities against ABCB1 |  | O=C(NC1CCC(OC(=O)c2cncn2-c2ccc(F)cc2)CC1)c1cncn1-c1ccc(F)cc1 (centres unmarked) [compound 17, 4-(1-(4-fluorophenyl)-1H-imidazole-5-carboxamido)cyclohexyl 1-(4-fluorophenyl)-1H-imidazole-5-carboxylate] |  |
|  |  | Cc1nc(N2CCN(C(=O)C(c3ccccc3)c3ccccc3)CC2)cc(-n2ccnc2)n1 [compound 23, 1-(4-(6-(1H-imidazol-1-yl)-2-methylpyrimidin-4-yl)piperazin-1-yl)-2,2-diphenylethan-1-one] | IC50 (ABCG2; pheophorbide A assay, MDCK II BCRP cells, 100% = 10 µM reference inhibitor 27, read-out: IC50 against ABCG2): 9.27 µM; IC50 (ABCB1; calcein AM assay, A2780/ADR cells, 100% = 10 µM reference inhibitor 2, read-out: IC50 against ABCB1): 4.01 µM; IC50 (ABCC1; calcein AM assay, H69AR cells, 100% = 10 µM reference inhibitor 26, read-out: IC50 against ABCC1): 14.8 µM |
|  | inhibited ABCC1 | O=C(CN1CCN(C(=O)Cn2cnc3scc(-c4cccs4)c3c2=O)CC1)N1CCCCCC1 [compound 18, 3-(2-(4-(2-(azepan-1-yl)-2-oxoethyl)piperazin-1-yl)-2-oxoethyl)-5-(thiophen-2-yl)thieno[2,3-d]pyrimidin-4(3H)-one] |  |
| activities against ABCB1 | inhibited ABCC1 | Cc1onc(-c2ccccc2)c1-c1nnc(CN2CCCC2c2ccc3c(c2)OCCCO3)o1 (centres unmarked) [compound 16, 2-((2-(3,4-dihydro-2H-benzo[b][1,4]dioxepin-7-yl)pyrrolidin-1-yl)methyl)-5-(5-methyl-3-phenyl-isoxazol-4-yl)-1,3,4-oxadiazole] |  |
| activities against ABCB1 |  | O=C(c1cccn1-c1nnc(N2CCCC2)s1)N1CCN(Cc2ccc3c(c2)OCO3)CC1 [compound 19, (4-(benzo[d][1,3]dioxol-5-ylmethyl)piperazin-1-yl)(1-(5-(pyrrolidin-1-yl)-1,3,4-thiadiazol-2-yl)-1H-pyrrol-2-yl)methanone] |  |

| SMILES | activity against ABCB1 in preliminary screening (ABCB1) | activity against ABCC1 in preliminary screening (ABCC1) | also measured |
| --- | --- | --- | --- |
| C1=CC2=NC3N4CN(CCCN5CCOCC5)CNC4=NC(c4ccccn4)N3C2C=C1 (centres unmarked) [compound 20, 4-(3-(6-(pyridin-2-yl)-4,6,7a,12a-tetrahydro-1H-benzo[4,5]imidazo[1,2-a][1,3,5]triazino[1,2-c][1,3,5]triazin-2(3H)-yl)propyl)morpholine] | did inhibit neither of the evaluated transporters | did inhibit neither of the evaluated transporters | activity against ABCG2 in preliminary screening (ABCG2; screened at 10 µM, active = at least 20% (+SEM) of effect of 10 µM compound 27): did inhibit neither of the evaluated transporters |
